In paper PMC6033897, “Characterization and Validation of a Human 3D Cardiac Microtissue for the Assessment of Changes in Cardiac Pathology” (Scientific Reports, 2018):
Where a name gives a salt, the structure may show the parent alone.

Experiments:
hCMEC [1] = assay: ER integrity in 2D monoculture; type: cell-based; conditions: Homo sapiens
Description: (§1) For 2D monoculture, hiPS-CM, hCMEC and hCF were cultured as described above and seeded in CellCarrier-384 Ultra microplates (Perkin Elmer, 6057300) at 5000, 2500 and 1750 cells/well respectively.
(§2) Monoculture cells were stained with fluorescent probes diluted in cell culture media, 25 µl media was removed and 25 µl of 2x multiplexed dye was added back to the well for 15 minutes at 37 °C, 5% CO2.

hiPS-CM [2] = assay: ER integrity in 2D monoculture; type: cell-based; conditions: Homo sapiens
Description: as §1, §2

hCF [3] = assay: ER integrity in 2D monoculture; conditions: Homo sapiens, read-out: ER integrity IC50
hCMEC [4] = assay: Mitochondrial membrane potential (ΔΨm) in 2D monoculture; type: cell-based; conditions: Homo sapiens
Description: as §1, §2

hiPS-CM [5] = assay: as above; type: cell-based; conditions: Homo sapiens
Description: as §1, §2

cardiac microtissues [6] = assay: Cellular viability (ATP depletion, CellTiter-Glo) in cardiac microtissues; type: cell-based, human; conditions: Homo sapiens, cardiac microtissues, read-out: Cellular viability (ATP depletion) IC50
Description: (§3) Cellular ATP concentrations were assessed using the CellTiter-Glo® Luminescent Cell Viability Assay as per the manufacturer’s instructions (Promega); for cardiac microtissues 40 µl media was removed prior to the addition of 40 µl CellTiter-Glo® reagent. […] Data from the same treatment on minimum of 3 occasions were averaged to represent the mean ATP measurement.

[7] = total Cmax, therapeutically relevant maximum total plasma concentration; source not given; cited from earlier work
cardiac microtissues [8] = assay: ER integrity (ER-Tracker blue imaging) in cardiac microtissues; type: cell-based, human; conditions: Homo sapiens; cardiac microtissues, 72 hours, geometric mean; read-out: ER integrity IC50
Description: (§4) Cardiac microtissues were stained with fluorescent probes in cell culture media, 40 µl media was removed and 40 µl of 2x multiplexed dye was added back to the well for 30 minutes at 37 °C, 5% CO2. Fluorescent probes used were ER-Tracker blue (2 µM) to measure endoplasmic reticulum (ER) integrity and TMRE (500 nM) to measure mitochondrial membrane potential (ΔΨm). All microtissues were imaged on a Cell Voyager 7000 (YokogawaInc.) and images captured using a 20x objective (Olympus UPLSAPO 0.75 NA, 0.6 mm WD), with a 2 × 2 bin. Plates are imaged live, prior to use the stage temperature was set to 37 °C and CO2 level at 5%. […] Transmitted light images were acquired using a 100 W Halogen lamp as an illumination source. Images were captured over a 60 μm range in the Z-axis with a 5 μm interval between slices. Z-stack images were output as a maximal projection of multiple z-planes.
(§5) Maximum projection images were imported and analysed in the Columbus Platform (v2.7, Perkin Elmer Inc.).

cardiac spheroids = tested on: cardiac spheroids; parameters: method as in PMID 28765558; conditions: alternative cardiac spheroids; cited from earlier work
cardiac microtissues [9] = assay: Mitochondrial membrane potential (ΔΨm, TMRE imaging) in cardiac microtissues; type: cell-based, human; conditions: Homo sapiens; cardiac microtissues, 72 hours, geometric mean; read-out: Mitochondrial membrane potential (ΔΨm) IC50
Description: as §4, §5

hCF [10] = assay: Cellular viability (ATP depletion) in 2D monoculture; conditions: Homo sapiens, read-out: Cellular viability (ATP depletion) IC50
hCMEC [11] = assay: as above; type: cell-based; conditions: Homo sapiens
Description: as §1, §3

hiPS-CM [12] = assay: as above; type: cell-based; conditions: Homo sapiens
Description: as §1, §3

hCF [13] = assay: Mitochondrial membrane potential (ΔΨm) in 2D monoculture; conditions: Homo sapiens, read-out: Mitochondrial membrane potential (ΔΨm) IC50

Structure (SMILES): COc1cccc2c1C(=O)c1c(O)c3c(c(O)c1C2=O)C[C@@](O)(C(=O)CO)C[C@@H]3O[C@H]1C[C@H](N)[C@H](O)[C@H](C)O1 [Doxorubicin HCl]
- IC50 (hCMEC [1]; 24 hours): 43.6 µM
- IC50 (hCMEC [1]; 72 hours): 31 µM
- IC50 (hiPS-CM [2]; 24 hours): 10.5 µM
- IC50 (hiPS-CM [2]; 72 hours): 76.5 µM
- IC50 (hCF [3]; 24 h): 6.39 µM
- IC50 (hCF [3]; 72 h): 46.6 µM
- IC50 (hCMEC [4]; 24 hours): > 50 µM
- IC50 (hCMEC [4]; 72 hours): > 50 µM
- IC50 (hiPS-CM [5]; 24 hours): 8.28 µM
- IC50 (hiPS-CM [5]; 72 hours): 16.9 µM
- IC50 (cardiac microtissues [6]; 24 hours): 15.5 µM
- IC50 (cardiac microtissues [6]; 72 hours, geometric mean): 0.83 µM
- Cmax [7]: 15.3 µM
- IC50 (cardiac microtissues [8]): 3.18 µM
- Concentration range with significant change in live/dead staining (cardiac spheroids): 5 to 40 µM
- IC50 (cardiac microtissues [9]): 0.18 µM
- IC50 (hCF [10]; 24 h): 0.62 µM
- IC50 (hCF [10]; 72 h): 0.11 µM
- IC50 (hCMEC [11]; 24 hours): 1.03 µM
- IC50 (hCMEC [11]; 72 hours): 0.1 µM
- IC50 (hiPS-CM [12]; 24 hours): 9.26 µM
- IC50 (hiPS-CM [12]; 72 hours): 1.01 µM
- IC50 (hCF [13]; 24 h): > 50 µM
- IC50 (hCF [13]; 72 h): > 50 µM
